# Experimental data from US20120136416A1, “Caged Neuropeptides: modulation and measurement of synapse and signaling activity; and methods for drug evaluation, pharmaceuticals preparation and treatment” (PRESIDENT AND FELLOWS OF HARVARD COLLEGE, priority 2010, published 2012).
# Experiments:
# [1] = test system: locus coeruleus (LC) neurons; test: Whole-cell recordings from locus coeruleus neurons in acute brain slices, local perfusion or UV uncaging; format: cell-based, rat
# [2] = target: human kappa opioid receptors (OPRK1) (Homo sapiens, UniProt P41145); format: cell-based
# [3] = test system: CA1 region of the hippocampus; test: Extracellular field potential recordings (population spike) in acute hippocampal slices, UV uncaging; format: cell-based, mice
# Description: Preliminary electrophysiological evaluation was carried out in transverse hippocampal slices from P15-18 mice and focused on inhibitory neurons, the predominant cells expressing Mu and Delta opioid receptors in the CA1 region. Initial neurophysiological evaluations were carried out in acute hippocampal slices from P24-30 mice. […] Extracellular field potential recordings reveal this as an increase in the population spike (pSpike) amplitude in response to Schaeffer collateral stimulation at 0.1 Hz. […] These experiments confirmed that photolysis in living tissue elicits a physiological response.
# Chain of human kappa opioid receptors (OPRK1) (P41145 whole entry, looked up): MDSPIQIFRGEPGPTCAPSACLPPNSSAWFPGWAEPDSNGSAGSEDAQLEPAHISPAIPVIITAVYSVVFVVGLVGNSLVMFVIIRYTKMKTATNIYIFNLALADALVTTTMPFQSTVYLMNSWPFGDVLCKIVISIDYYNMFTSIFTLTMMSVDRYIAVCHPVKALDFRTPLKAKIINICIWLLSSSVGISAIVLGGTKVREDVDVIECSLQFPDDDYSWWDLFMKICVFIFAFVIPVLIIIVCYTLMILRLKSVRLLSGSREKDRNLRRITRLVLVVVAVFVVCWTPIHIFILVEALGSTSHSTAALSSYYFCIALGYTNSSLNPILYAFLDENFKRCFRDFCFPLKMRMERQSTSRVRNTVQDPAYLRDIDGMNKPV
compound,measurement,setting,value
Nc1ccncc1 [4-AP],effect on residual Ba^2+-insensitive outward current,[1],unable to block or occlude
"[Ba+2].[Cl-].[Cl-] [Ba^2+, BaCl2]",outward current blocked,[1],80%
"[Cl][Cd][Cl] [Cd^2+, CdCl2]",effect on residual Ba^2+-insensitive outward current,[1],unable to block or occlude
"CC(C)C[C@H](NC(=O)[C@H](Cc1ccccc1)NC(=O)CNC(=O)CNC(=O)[C@@H](N)Cc1ccc(O)cc1)C(=O)O [L-Enk, Leu-Enkephalin]",activation of kappa receptors,[2],did not activate
CC1(C)[C@@H](OC(=O)CCC(=O)O)CC[C@]2(C)[C@H]3C(=O)C=C4[C@@H]5C[C@@](C)(C(=O)O)CC[C@]5(C)CC[C@@]4(C)[C@]3(C)CC[C@@H]12 [carbenoxolone],effect on responses to the uncaging stimuli,"[1]; 100 uM, n=10 cells",not significantly attenuated
C=CCN1CC[C@]23c4c5ccc(O)c4O[C@H]2C(=O)CC[C@@]3(O)[C@H]1C5 [naloxone],effect on light-evoked outward current,"[1]; 2 μM, uncaging of 10 μM CYLE",blocked
same,effect on light-evoked pSpike increases,[3],blocked
ZD7288,effect on residual Ba^2+-insensitive outward current,[1],unable to block or occlude
